The subject of experiment [1] is chemokine receptors on THP-1 cells. Briefly: Binding to THP-1 cells. Set-up: species or system human. Conditions: Table 7. The method, then: In general, specific binding is calculated as the amount of labeled agent bound in the absence of cold competitor minus the amount of labeled agent bound in the presence of cold competitor. The amount of specific binding in the presence of varied amounts of cold competitor can be used to determine the association constant for the agent, as well as the number of binding sites on the cell for the agent, using, for example, Scatchard Analysis. The agent may be labeled by radiolabeling (e.g., iodination) or with a suitable biochemical tag (e.g., biotin) or by addition of a photoactivatable crosslinking group. […]
For example, monocytes are suspended in RPMI 1640 medium without bicarbonate containing 0.2% bovine serum albumin and 0.1% azide. […] Filters are washed with 4 ml of cold wash buffer, and the radioactivity bound to the filters is counted in a γ-counter.
For competition studies, the IC50 is calculated with a curve fitting program (GraFit, Erithacus Software, London), using a four-parameter logistic, cpmbound=cpmmax/(1+([L]/IC50)^S)+cpmns, where cpmmax represents the binding without competitor, [L] is the competitor concentration, cpmns is the non-specific binding, and s is the slope factor. […]

Experiment [2] concerns SDF-1α induced THP-1 migration. Briefly: Trans-well THP-1 migration assay, SDF-1α as chemoattractant. Format: cell-based, human. As to conditions: Table 6; n.s. = no statistically significant inhibition. The method, then:
(§1) FIG. 1 is a schematic of the trans-well migration assay. In most experiments, the peptide (wavy line) is added to the upper well with about 50,000 cells (O). The upper and lower wells are separated by a 5 μm or 8 μm pore size PVP-free membrane (- - - -). Chemokine (●) is added to the lower well. After 4 hours, the number of cells that have migrated through the membrane are measured (◯ in lower well).
(§2) To determine whether an agent inhibits a chemokine-induced activity, such as macrophage recruitment, varying amounts of the agent are mixed with cells in the presence of a known chemoattractant. For example, a range of known concentrations of an agent, e.g., a chemokine peptide, is incubated with a defined number (e.g., 10^4-10^6) of human THP-1 monocyte cells in individual wells of the top compartment of a trans-well plate. […] A standard curve consisting of a two-fold dilution series of THP-1 cells (in 29 μl) is prepared to accurately quantify the number of cells that have migrated. […] Absorbance of converted dye is measured at a wavelength of 595 nm using an ELISA plate reader. The number of migrated cells in each well is then determined by interpolation of the standard curve (see also Imai et al., J. Biol. Chem., 272, 15036 (1997)). […]

The subject of experiment [3] is MCP-1 induced THP-1 migration. Put plainly: Trans-well THP-1 migration assay, MCP-1 as chemoattractant. Format: cell-based, human. As to conditions: Table 6; n.s. = no statistically significant inhibition. The method, then:
as §1
To determine whether an agent inhibits a chemokine-induced activity, such as macrophage recruitment, varying amounts of the agent are mixed with cells in the presence of a known chemoattractant. For example, a range of known concentrations of an agent, e.g., a chemokine peptide, is incubated with a defined number (e.g., 10^4-10^6) of human THP-1 monocyte cells in individual wells of the top compartment of a trans-well plate. Chemokine (such as MCP-1, MIP1α, IL8 or SDF-1α), at a concentration known to cause significant migration of THP-1 cells in the trans-well migration assay, is placed in the lower compartment (FIG. 1). Cells are then incubated at 37° C. for a period sufficient to allow migration, e.g., 4 hours. After incubation, the cells are gently removed from the top of the filter with a pipette, 20 μl of 20 mM EDTA in simple PBS is added into each top well, and incubated for 20 minutes at 4° C. The filter is carefully flushed with media using a gentle flow, and removed. A standard curve consisting of a two-fold dilution series of THP-1 cells (in 29 μl) is prepared to accurately quantify the number of cells that have migrated. Migrated cells are stained with 3 μl of MTT stock dye solution which is added directly into each well (5 mg/ml in RPMI-1640 without phenol red, Sigma Chemical Co.) and incubated at 37° C. for 4 hours. The media is carefully aspirated from each well, and the converted dye is solubilized by 20 μl of DMSO. Absorbance of converted dye is measured at a wavelength of 595 nm using an ELISA plate reader. The number of migrated cells in each well is then determined by interpolation of the standard curve (see also Imai et al., J. Biol. Chem., 272, 15036 (1997)).
(§3) Any method suitable for counting cells can be used, for example, counting with a hemocytometer, incubation of the cells with MTT (see above), or FACS analysis. A negative control assay is also performed, using TGF-β or another non-chemokine chemoattractant (e.g., IL1β or TNFα). To assess whether the agent is cytotoxic, the same concentrations of agent are incubated with THP-1 cells. Agents which 1) are not cytotoxic at levels which inhibit migration, 2) are ineffective at inhibiting the negative control-induced migration, and 3) reduce or inhibit chemokine-induced THP-1 migration, are agents which fall within the scope of the invention.
(§4) For this assay, THP-1 cells were maintained at a density of 4×10^5 cells per ml in RPMI-1640 supplemented with 10% fetal calf serum+20 μM 2-mercaptoethanol. Chemotaxis was induced in a 96-well disposable chemotaxis chamber fitted with a […] polycarbonate filter (PVP free, ChemoTX, Neuroprobe Inc., Cabin John). Twenty-nine μl of chemoattractant (recombinant human chemokine; 50 ng/ml, i.e., 5.9 nM) or control (100 ng/ml TGFβ) was added to the lower compartment of each well. The framed filter was aligned with the holes in the corner of the filter frame and placed over the wells. Five×10^4 THP-1 cells in 25 μl of RPMI-1640 culture media were added to the upper compartment. Peptides were dissolved in Milli Q water and then serially diluted in culture medium. In most cases, the serially diluted peptides were added to the upper compartment of the chemotaxis chamber. The chamber was incubated at 37° C. in a humidified atmosphere of 5% CO2 for 4 hours.
After incubation, the cells were gently removed from the top of the filter with a pipette, 20 μl of 20 mM EDTA in PBS was added into each top well, and the mixture was incubated for 20 minutes at 4° C. The filter was then carefully flushed with media using a gentle flow, and removed. […]

Experiment [4] relates to TGFβ1 induced THP-1 migration. Briefly: Trans-well THP-1 migration assay, TGFβ1 as non-chemokine control chemoattractant. Format: cell-based, human. Conditions: Table 6; n.s. = no statistically significant inhibition, even at 100 μM. The method, then:
as §3
as §4, with “In most cases, the serially diluted peptides were added to the upper compartment of the chemotaxis chamber. The chamber was incubated at 37° C. in a humidified atmosphere of 5% CO2 for 4 hours.” left out
After incubation, the cells were gently removed from the top of the filter with a pipette, 20 μl of 20 mM EDTA in PBS was added into each top well, and the mixture was incubated for 20 minutes at 4° C. […] A standard curve was prepared to accurately quantify the number of THP-1 cells that had migrated. […] Absorbance of converted dye was measured at a wavelength of 595 nm using an ELISA plate reader. The number of cells that had migrated in each well was determined by interpolation of the standard curve.
To investigate the receptor specificity of peptide 3 inhibition, the ED50 was determined for peptide 3(1-12)[MCP-1] […]

Experiment [5] concerns IL8 induced THP-1 migration. Briefly: Trans-well THP-1 migration assay, IL8 as chemoattractant. Format: cell-based, human. As to conditions: Table 6; n.s. = no statistically significant inhibition. The method, then:
as §1, §2

Experiment [6] relates to chemokine-induced THP-1 migration (MCP-1, MIP1α, IL8, SDF1α). Put plainly: Trans-well THP-1 migration assay, across the chemokines tested. The experiment is classed as cell-based, human. Here is the method: To determine whether an agent inhibits a chemokine-induced activity, such as macrophage recruitment, varying amounts of the agent are mixed with cells in the presence of a known chemoattractant. […] Chemokine (such as MCP-1, MIP1α, IL8 or SDF-1α), at a concentration known to cause significant migration of THP-1 cells in the trans-well migration assay, is placed in the lower compartment (FIG. 1). […] After incubation, the cells are gently removed from the top of the filter with a pipette, 20 μl of 20 mM EDTA in simple PBS is added into each top well, and incubated for 20 minutes at 4° C. The filter is carefully flushed with media using a gentle flow, and removed. […] The media is carefully aspirated from each well, and the converted dye is solubilized by 20 μl of DMSO. Absorbance of converted dye is measured at a wavelength of 595 nm using an ELISA plate reader. The number of migrated cells in each well is then determined by interpolation of the standard curve (see also Imai et al., J. Biol. Chem., 272, 15036 (1997)). […] The framed filter was aligned with the holes in the corner of the filter frame and placed over the wells. Five×10^4 THP-1 cells in 25 μl of RPMI-1640 culture media were added to the upper compartment. Peptides were dissolved in Milli Q water and then serially diluted in culture medium. In most cases, the serially diluted peptides were added to the upper compartment of the chemotaxis chamber. […] After incubation, the cells were gently removed from the top of the filter with a pipette, 20 μl of 20 mM EDTA in PBS was added into each top well, and the mixture was incubated for 20 minutes at 4° C. The filter was then carefully flushed with media using a gentle flow, and removed. […] The media was carefully aspirated from each well, and the converted dye was solubilized by 20 μl of DMSO. Absorbance of converted dye was measured at a wavelength of 595 nm using an ELISA plate reader. […] Representative chemokines included a beta-chemokine (“CC”), MIP-1α, and two alpha-chemokines (“CXC”), IL-8 and SDF-1α. […]

Marks after values point to notes of the source that are not given here. Where only a bound is given, the exact number is not on record here.

On to ELRVIESGPHCANTEI [Pep2[IL8]], for which the “AVERAGE ED50 (peptide 2 family: estimated ka for binding to THP-1 cells)” value in experiment [1] is given as 1-10^c μM.
With CLDPKKEWIQ [SEE], the “ED50 versus SDF1α, THP-1 migration” value in experiment [2] is on record as “n.s”. Further, the “ED50 versus MCP1, THP-1 migration” value in experiment [3] is reported as “n.s”. Further, the “ED50 versus TGFβ1, THP-1 migration” value in experiment [4] is given as “n.s”. Besides, the “ED50 versus IL8, THP-1 migration” value in experiment [5] was “n.s”. The “specificity for the cognate chemokine over the other chemokines tested” value in experiment [6] is > 100 fold. Also, the “CC SPECIFICITY” value in experiment [6] (Table 7, average inhibitory ED50 versus SDF1 and IL8 divided by average inhibitory ED50 versus MCP-1 and MIP1α) was >100.
HLKILNTPNCALQIV [Pep2[SDF1]]: the “AVERAGE ED50 (peptide 2 family: estimated ka for binding to THP-1 cells)” value in experiment [1] was 1-10^c μM.
